Measurements: US10836759B2, “Thiazole derivatives useful as mutant IDH1 inhibitors for treating cancer” (THE UNITED STATES OF AMERICA, AS REPRESENTED BY THE …, priority 2016, dated 2020)

Assays:
IDH1 R132C = IDH1 R132C (Homo sapiens, UniProt O75874, R132C); test: Enzymatic inhibition assay, mutant IDH1 R132C (NADPH depletion coupled to diaphorase/resazurin); format: biochemical; details: IDH1 R132C enzyme, IC50 class
Description: (§1) Assays were conducted in a 1536-well black solid-bottom plate with a final assay volume of 9 μL.
For IDH1 R132C, 3 μL of enzyme (0.00032 mg/mL IDH1 R132H, 10% glycerol, 50 mM potassium phosphate pH 6.5, 5 mM MgCl2, 0.03% BSA) were added to the plate, followed by the addition of 23 nL of test compound in DMSO. The plate was lidded and incubated at room temperature for 30 minutes at which time 3 μL of substrate were added (0.012 mM NADPH, 0.6 mM α-KG, 10% glycerol, 50 mM potassium phosphate pH 6.5, 5 mM MgCl2, 0.03% BSA). […]

IDH1 R132H = IDH1 R132H (Homo sapiens, UniProt O75874, R132H); test: Enzymatic inhibition assay, mutant IDH1 R132H (NADPH depletion coupled to diaphorase/resazurin); format: biochemical; details: IDH1 R132H enzyme, IC50 class
Description: as §1
Specifically, for IDH1 R132H, 3 μL of enzyme (4 mM β-ME, 0.0005 mg/mL IDH1 R132H, 150 mM NaCl, 20 mM Tris pH 7.5, 10 mM MgCl2, 0.05% BSA) were added to the plate, followed by the addition of 23 nL of test compound in DMSO. The plate was lidded and incubated at room temperature for 30 minutes at which time 3 μL of substrate were added (0.016 mM NADPH, 2 mM α-KG, 150 mM NaCl, 20 mM Tris pH 7.5, 10 mM MgCl2, 0.05% BSA). This reaction was incubated at room-temperature for 60 minutes at which time the detection mix was added (0.06 mg/mL diaphorase, 0.036 mM resazurin, 150 mM NaCl, 20 mM Tris pH 7.5, 10 mM MgCl2, 0.05% BSA). […]

Chain of IDH1 R132H (O75874 whole entry R132H): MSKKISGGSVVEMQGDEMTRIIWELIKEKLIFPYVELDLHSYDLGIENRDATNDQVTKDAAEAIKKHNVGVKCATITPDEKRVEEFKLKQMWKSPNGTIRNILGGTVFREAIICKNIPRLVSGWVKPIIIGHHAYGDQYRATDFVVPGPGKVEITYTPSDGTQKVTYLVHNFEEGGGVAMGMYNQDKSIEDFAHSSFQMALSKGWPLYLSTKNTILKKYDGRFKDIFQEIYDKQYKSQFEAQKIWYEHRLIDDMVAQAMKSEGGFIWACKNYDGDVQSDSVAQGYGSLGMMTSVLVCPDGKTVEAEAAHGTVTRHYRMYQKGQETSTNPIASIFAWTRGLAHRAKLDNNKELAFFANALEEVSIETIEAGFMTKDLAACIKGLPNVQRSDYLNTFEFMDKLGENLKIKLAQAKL
Chain of IDH1 R132C (O75874 whole entry R132C): as the sequence (O75874 whole entry R132H) above, with H132C counted along it

SMILES	IC50 (IDH1 R132C) [nM]	IC50 (IDH1 R132H) [nM]
CCOc1ccc(Cl)cc1-n1c(C=C(C)C)c(C(=O)N2CCNCC2)cc(-c2nc(-c3ccc(Cl)cc3)cs2)c1=O (single isomer, unassigned) [Compound 143-1]	300 to 1000	–
CCc1ccc(Cl)cc1-n1c(CC(C)C)c(C(=O)N2CCNCC2)cc(-c2nc(-c3ccc(C(F)F)cc3)cs2)c1=O [Compound 118]	300 to 1000	300 to 1000
CCOc1ccc(Cl)cc1-n1c(C=C(C)C)c(C(=O)N2CC3CCC(C2)N3)cc(-c2nc(-c3ccc(C#N)cc3)cs2)c1=O (single isomer, unassigned) [Compound 141-1]	< 300	< 300
CCOc1ccc(Cl)cc1-n1c(C=C(C)C)c(C(=O)N2C[C@H]3CC[C@@H](C2)N3)cc(-c2nc(-c3ccc(C(F)F)cc3)cs2)c1=O [Compound 125]	< 300	< 300
CCOc1ccc(Cl)c(-n2c(C=C(C)C)c(C(=O)N3CC4CCC(C3)N4)cc(-c3nc(-c4ccc(Cl)cc4)cs3)c2=O)c1 (single isomer, unassigned) [Compound 126-2]	1000 to 5000	1000 to 5000
CCc1ccc(OC)cc1-n1c(C=C(C)C)c(C(=O)N2CCNCC2)cc(-c2nc(-c3ccc(C(F)(F)F)nc3)cs2)c1=O [Compound 103]	< 300	< 300
CCc1ccc(N(C)C)cc1-n1c(C=C(C)C)c(C(=O)N2CC3CCC(C2)N3)cc(-c2nc(-c3ccc(Cl)cc3)cs2)c1=O [Compound 134]	< 300	< 300
CCc1cccc(CC)c1-n1c(C=C(C)C)c(C(=O)N2CCN[C@H](C)C2)cc(-c2nc(-c3ccc(Cl)cc3)cs2)c1=O [Compound 112]	< 300	< 300
CCOc1ccc(Cl)cc1-n1c(C=C(C)C)c(C(=O)N2CC3CCC(C2)N3)cc(-c2nc(-c3ccc(Cl)cc3)cs2)c1=O (single isomer, unassigned) [Compound 113-1]	< 300	< 300
CCOc1ccc(Cl)cc1-n1c(C=C(C)C)c(C(=O)N2CC3CCC(C2)N3)cc(-c2nc(-c3ccc(Cl)cc3)cs2)c1=O (single isomer, unassigned) [Compound 113-2]	300 to 1000	1000 to 5000
CCOc1ccc(Cl)c(-n2c(C=C(C)C)c(C(=O)N3CCNCC3)cc(-c3nc(-c4ccc(Cl)cc4)cs3)c2=O)c1 (single isomer, unassigned) [Compound 139-2]	1000 to 5000	300 to 1000
CCOc1ccc(Cl)cc1-n1c(C=C(C)C)c(C(=O)N2CCN[C@H](C)C2)cc(-c2nc(-c3ccc(C(F)(F)F)cc3)cs2)c1=O [Compound 110]	< 300	< 300
CCOc1ccc(Cl)cc1-n1c(C=C(C)C)c(C(=O)N2CC3CCC(C2)N3)cc(-c2nc(-c3ccc(C#N)cc3)cs2)c1=O (single isomer, unassigned) [Compound 141-2]	< 300	300 to 1000
CCc1ccc(OC)cc1-n1c(C=C(C)C)c(C(=O)N2CCNCC2)cc(-c2nc(-c3ccc(C(F)(F)F)cc3)cs2)c1=O [Compound 102]	< 300	< 300
CCOc1ccc(Cl)cc1-n1c(C=C(C)C)c(C(=O)N2CCNC[C@H]2C)cc(-c2nc(-c3ccc(C(F)(F)F)cc3)cs2)c1=O [Compound 129]	< 300	< 300
CC(C)=Cc1c(C(=O)N2CCNCC2)cc(-c2nc(-c3ccc(Cl)cc3)cs2)c(=O)n1-c1cc(N(C)C)ccc1Cl [Compound 147]	< 300	< 300
CCOc1ccc(Cl)cc1-n1c(C=C(C)C)c(C(=O)N2CCNCC2)cc(-c2nc(-c3ccc(C#N)cc3)cs2)c1=O (single isomer, unassigned) [Compound 140-2]	300 to 1000	< 300
CCc1cccc(CC)c1-n1c(C=C(C)C)c(C(=O)N2CC3CCC(C2)N3)cc(-c2nc(-c3ccc(C(F)F)cc3)cs2)c1=O [Compound 116]	< 300	< 300
CCc1cccc(CC)c1-n1c(C=C(C)C)c(C(=O)N2CCNC[C@H]2C)cc(-c2nc(-c3ccc(C(F)F)cc3)cs2)c1=O [Compound 131]	< 300	< 300
CCOc1ccc(Cl)cc1-n1c(C=C(C)C)c(C(=O)N2CC3CCC(C2)N3)cc(-c2nc(-c3ccc(Cl)cc3)cs2)c1=O [Compound 113]	< 300	< 300
CCOc1ccc(C#N)cc1-n1c(C=C(C)C)c(C(=O)N2CC3CCC(C2)N3)cc(-c2nc(-c3ccc(Cl)cc3)cs2)c1=O [Compound 135]	< 300	< 300
CCOc1ccc(N(CC)CC)cc1-n1c(C=C(C)C)c(C(=O)N2CCNCC2)cc(-c2nc(-c3ccc(Cl)cc3)cs2)c1=O [Compound 145]	< 300	< 300

SMILES	IC50 (IDH1 R132C) [nM]	IC50 (IDH1 R132H) [nM]
CCc1ccc(Cl)cc1-n1c(C=C(C)C)c(C(=O)N2CC3CCC(C2)N3)cc(-c2nc(-c3ccc(Cl)cc3)cs2)c1=O [Compound 133]	< 300	< 300
CCOc1ccc(Cl)cc1-n1c(C=C(C)C)c(C(=O)N2CCN[C@@H](C)C2)cc(-c2nc(-c3ccc(C(F)(F)F)cc3)cs2)c1=O [Compound 107]	< 300	< 300
CCOc1ccc(Cl)c(-n2c(C=C(C)C)c(C(=O)N3CCNCC3)cc(-c3nc(-c4ccc(Cl)cc4)cs3)c2=O)c1 (single isomer, unassigned) [Compound 139-1]	< 300	< 300
CNc1ccc(Cl)c(-n2c(C=C(C)C)c(C(=O)N3CCNCC3)cc(-c3nc(-c4ccc(Cl)cc4)cs3)c2=O)c1 [Compound 148]	< 300	< 300
CCc1ccc(OC)cc1-n1c(C=C(C)C)c(C(=O)N2CC3CCC(C2)N3)cc(-c2nc(-c3ccc(Cl)cc3)cs2)c1=O [Compound 114]	< 300	< 300
CCOc1ccc(Cl)cc1-n1c(C=C(C)C)c(C(=O)N2CC3CCC(C2)N3)cc(-c2nc(-c3ccc(C(F)(F)F)cc3)cs2)c1=O [Compound 115]	< 300	< 300
CCc1ccc(Cl)cc1-n1c(C=C(C)C)c(C(=O)N2CCNCC2)cc(-c2nc(-c3ccc(Cl)cc3)cs2)c1=O [Compound 101]	< 300	< 300
CCc1cccc(CC)c1-n1c(C=C(C)C)c(C(=O)N2CCNC[C@@H]2C)cc(-c2nc(-c3ccc(Cl)cc3)cs2)c1=O [Compound 124]	< 300	< 300
CCOc1ccc(N(CC)CC)cc1-n1c(C=C(C)C)c(C(=O)N2C[C@H]3CC[C@@H](C2)N3)cc(-c2nc(-c3ccc(Cl)cc3)cs2)c1=O [Compound 146]	300 to 1000	< 300
CCOc1ccc(Cl)c(-n2c(C=C(C)C)c(C(=O)N3C[C@H]4CC[C@@H](C3)N4)cc(-c3nc(-c4ccc(C(F)F)cc4)cs3)c2=O)c1 [Compound 130]	< 300	< 300
CCc1ccc(Cl)cc1-n1c(C=C(C)C)c(C(=O)N2CCNCC2)cc(-c2nc(-c3ccc(Cl)cc3)cs2)c1=O (single isomer, unassigned) [Compound 144-2]	300 to 1000	< 300
CCc1cccc(CC)c1-n1c(C=C(C)C)c(C(=O)N2CCN[C@@H](C)C2)cc(-c2nc(-c3ccc(C(F)F)cc3)cs2)c1=O [Compound 108]	< 300	< 300
CCc1ccc(OC)cc1-n1c(C=C(C)C)c(C(=O)N2CCNCC2)cc(-c2nc(-c3ccc(C(F)F)cc3)cs2)c1=O [Compound 104]	< 300	< 300
CCOc1ccc(Cl)c(-n2c(C=C(C)C)c(C(=O)N3CCNCC3)cc(-c3nc(-c4ccc(C(F)F)cc4)cs3)c2=O)c1 [Compound 106]	< 300	< 300
CCc1cccc(CC)c1-n1c(C=C(C)C)c(C(=O)N2CCN[C@@H](C)C2)cc(-c2nc(-c3ccc(Cl)cc3)cs2)c1=O [Compound 109]	< 300	< 300
CCOc1ccc(Cl)c(-n2c(C=C(C)C)c(C(=O)N3CC4CCC(C3)N4)cc(-c3nc(-c4ccc(OC)nc4)cs3)c2=O)c1 [Compound 138]	< 300	< 300
CCOc1ccc(Cl)cc1-n1c(C=C(C)C)c(C(=O)N2CCNCC2)cc(-c2nc(-c3ccc(C#N)cc3)cs2)c1=O (single isomer, unassigned) [Compound 140-1]	< 300	< 300
CCc1ccc(Cl)cc1-n1c(C=C(C)C)c(C(=O)N2CCNCC2)cc(-c2nc(-c3ccc(Cl)cc3)cs2)c1=O (single isomer, unassigned) [Compound 144-1]	< 300	< 300
CCc1cccc(CC)c1-n1c(C=C(C)C)c(C(=O)N2C[C@H]3CC[C@@H](C2)N3)cc(-c2nc(-c3ccc(C(F)F)nc3)cs2)c1=O [Compound 119]	< 300	< 300
CCc1cccc(CC)c1-n1c(C=C(C)C)c(C(=O)N2CCNC[C@@H]2C)cc(-c2nc(-c3ccc(C(F)F)cc3)cs2)c1=O [Compound 132]	< 300	< 300
CCc1ccc(OC)cc1-n1c(C=C(C)C)c(C(=O)N2CCNCC2)cc(-c2nc(-c3ccc(Cl)cc3)cs2)c1=O (single isomer, unassigned) [Compound 151-2]	300 to 1000	–
